Read-outs that look alike come from different tables or passages of the source.
How the values were obtained:
melanoma cell lines = assay: Cell based assay, cell viability (CellTiter-Glo), melanoma cell lines; details: Homo sapiens; LOX-IMVI cell line
How it was run: (§1)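 Plated cells (24 h) → compound to 0–2 μM final → 72 h → CellTiter-Glo ATP luminescence.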

neuroblastoma cell lines = assay: Cell based assay, cell viability (CellTiter-Glo), neuroblastoma cell lines; details: Homo sapiens; SH-SY5Y cell line
How it was run: as §1

[1] = tested on: colorectal cancer cell lines (e.g. DLD-1, HCT 116, SW620, HCT-15, HCT-8, RKO); assay: Cell based assay, cell viability (CellTiter-Glo), colorectal cancer cell lines
How it was run: as §1

[2] = Homo sapiens, DLD-1, 72 hours treatment, read-out: IC50, colorectal cancer cell line DLD-1
[3] = Homo sapiens, HCT 116, 72 hours treatment, read-out: IC50, colorectal cancer cell line HCT 116
[4] = Homo sapiens, HCT-8, 72 hours treatment, read-out: IC50, colorectal cancer cell line HCT-8
[5] = Homo sapiens, HCT-15, 72 hours treatment, read-out: IC50, colorectal cancer cell line HCT-15
[6] = Homo sapiens, HT-29, 72 hours treatment, read-out: IC50, colorectal cancer cell line HT-29
[7] = Homo sapiens, LoVo, 72 hours treatment, read-out: IC50, colorectal cancer cell line LoVo
[8] = Homo sapiens, SW480, 72 hours treatment, read-out: IC50, colorectal cancer cell line SW480
[9] = Homo sapiens, SW-620, SW620, 72 hours treatment, read-out: IC50, colorectal cancer cell line SW620
[10] = RKO, 72 hours treatment, read-out: IC50, colorectal cancer cell line RKO

IC50 (melanoma cell lines) | IC50 (neuroblastoma cell lines) | IC50 [1, 2] | IC50 [1, 3] | IC50 [1, 4] | IC50 [1, 5] | IC50 [1, 6] | IC50 [1, 7] | IC50 [1, 8] | IC50 [1, 9] | IC50 [1, 10] | Structure (SMILES)
> 2000 nM | > 2000 nM | > 2000 nM | > 2000 nM | > 2000 nM | > 2000 nM | > 10000 nM | > 2000 nM | > 2000 nM | > 2000 nM | > 2000 nM | CC(=O)c1c([S+]([O-])c2ccc(Br)cc2)[nH]c2c(Br)ccc(Cl)c2c1=O (stereo not drawn) [Compound 17, 3-acetyl-8-bromo-2-((4-bromophenyl)sulfinyl)-5-chloroquinolin-4(1H)-one]
> 2000 nM | > 2000 nM | > 2000 nM | > 2000 nM | > 2000 nM | > 2000 nM | > 10000 nM | > 2000 nM | > 2000 nM | > 2000 nM | > 2000 nM | CSc1[nH]c2c(Br)ccc(Cl)c2c(=O)c1C(C)=O [Compound 2, 3-acetyl-8-bromo-5-chloro-2-(methylthio)quinolin-4(1H)-one]
> 2000 nM | > 2000 nM | > 2000 nM | > 2000 nM | > 2000 nM | > 2000 nM | > 10000 nM | > 2000 nM | > 2000 nM | > 2000 nM | > 2000 nM | CSc1c(C(C)=O)c(=O)c2c(Cl)ccc(Br)c2n1C [Compound 5, 3-acetyl-8-bromo-5-chloro-1-methyl-2-(methylthio)quinolin-4(1H)-one]

Reference: patent publication US11464770B2, “Anticancer pharmaceutical composition” (NATIONAL CANCER CENTER, priority 2016, dated 2022)
